PMC12347391, “Sulforaphane-Rich Broccoli Sprout Extract Promotes Hair Regrowth in an Androgenetic Alopecia Mouse Model via Enhanced Dihydrotestosterone Metabolism” (International Journal of Molecular Sciences, 2025)
Read-outs that look alike come from different tables or passages of the source.

Legend:
[1] = test system: HDP cells; assay: In vitro cell proliferation assay (WST-1); format: cell-based, human; settings: between 0.5 and 5 µg/mL
[2] = test system: HDP cells; assay: In vitro scratch wound recovery assay; format: cell-based, human
Description: No. BA-045855; Sartorius AG, […], Germany). […] Sartorius AG), following the manufacturer's instructions. Detached cells were removed by washing twice with PBS (pH 7.4). […] All treatments were performed in triplicate, including a vehicle control. […] Wound closure was quantified using the Incucyte® Scratch Wound Analysis Software Module, which calculates relative wound density (%) by comparing cell density within the wound area to that of the surrounding monolayer, providing an objective measure of cell migration and proliferation over time.

[3] = test system: HDP cells; assay: Boyden chamber migration assay; format: cell-based, human; settings: 24 h, BSE based on SFN equivalence
Description: To evaluate the migratory ability of HDP cells, a Boyden chamber assay was performed. HDP cells were serum-starved for 24 h in a medium containing 0.5% (v/v) FCS. […] The lower chambers were filled with 600 µL of HDP medium supplemented with 4% FCS, 4% bovine pituitary extract, 1 ng/L recombinant human fibroblast growth factor, and 5 µg/L recombinant human insulin. After a 24 h incubation period to allow for migration, cells were fixed with 4% paraformaldehyde (BL539A, Biosharp, Hefei, Anhui, China) for 15 min and stained using Crystal Violet Staining Solution (C0121, Beyotime, Shanghai, China) for 10 min. Non-migrated cells on the upper side of the insert membrane were carefully removed using a cotton swab. To quantify migrated cells, the basal chambers were filled with 500 µL of calcein-AM-based cell dissociation solution. Cells were incubated for 1 h at 37 °C, and the fluorescence of the dissociated calcein-AM was measured using a microplate reader at an excitation wavelength of 485 nm and an emission wavelength of 520 nm.

[4] = in vivo; settings: Sprague-Dawley, rat, plasma, rats; for AUC(0-inf): read-out: AUCinf of SFN; for AUC(0-t): read-out: AUClast of SFN; for half-life: read-out: T1/2 of SFN (converted)
Description: To evaluate absolute oral bioavailability, an intravenous (IV) bolus dose of SFN (2 mg/kg, dissolved in normal saline, 200 µL) was administered via a cannulated femoral vein. Blood samples (300 µL) were collected from the femoral artery at predetermined time points: 0.17, 0.5, 1, 1.5, 2, 4, 8, and 12 h post-IV dosing, and 0.17, 0.5, 1, 2, 4, 6, 8, and 12 h post-oral dosing. Samples were immediately centrifuged at 13,000× g for 5 min at 4 °C to separate plasma, which was stored at −80 °C until further analysis.
The plasma concentrations of SFN were determined using liquid chromatography–tandem mass spectrometry (LC–MS/MS) following protein precipitation and solid-phase extraction. Briefly, 180 µL of plasma was spiked with 10 µL of SFN working solution (0.2–20 µg/mL) and 10 µL of internal standard (IS), phenethyl isothiocyanate (PHE, 5 µg/mL in acetonitrile). Proteins were precipitated by adding 200 µL of a solvent mixture consisting of 25% acetonitrile, 25% water, and 50% ethanol, followed by centrifugation at 18,340× g for 5 min at 4 °C. The resulting 400 µL supernatant was subjected to SPE using Oasis® HLB 96-well µElution plates (2 mg sorbent per well, 30 µm particle size; Waters Corporation, Milford, MA, USA), preconditioned with 200 µL each of methanol and water. After sample loading, the wells were washed sequentially with 200 µL of water and 50% aqueous methanol, and analytes were eluted with 400 µL of acetonitrile (2 × 200 µL).
Chromatographic separation was achieved on an ACQUITY UPLC system (Waters Corporation) using a BEH C18 column (50 × 2.1 mm, 1.7 µm). The mobile phase consisted of 10 mM ammonium acetate in water (30%, solvent A) and 0.1% formic acid in acetonitrile (70%, solvent B), delivered at a flow rate of 0.6 mL/min. The column temperature was maintained at 50 °C, and the injection volume was 10 µL.
Detection was performed using a Xevo TQ-S triple quadrupole mass spectrometer (Waters Corporation) equipped with an electrospray ionization source in the positive-ion mode. Multiple reaction monitoring (MRM) transitions were set at m/z 178.0 → 114.0 for SFN (cone voltage: 24 V; collision energy: 30 eV) and m/z 164.0 → 130.0 for PHE (cone voltage: 23 V; collision energy: 22 eV). The instrument settings included a capillary voltage of 3.0 kV, source temperature of 120 °C, desolvation temperature of 500 °C, desolvation gas (nitrogen) flow of 800 L/h, and cone gas (nitrogen) flow of 50 L/h. Argon was used as the collision gas. All the MRM parameters were optimized using the software IntelliStart^TM (Waters Corporation).
The calibration curve for SFN was linear over the range of 0.5–1000 ng/mL, with a lower limit of detection (LOD) of 0.5 ng/mL. The overall recovery of SFN using the described extraction method was 90 ± 3%, when compared to the direct analysis of the standard diluted in methanol.

[5] = test system: HaCaT keratinocytes; settings: human, 24 h
[6] = test system: CCD-986sk dermal fibroblasts; settings: human, 24 h
[7] = in water at 25 °C; cited from earlier work
[8] = after 5 weeks, cited from earlier work
[9] = pH 1.2 (mimics gastric fluid), within 1 h; cited from earlier work
[10] = in humans; cited from earlier work

C[S+]([O-])CCCCN=C=S (stereo not drawn) [SFN, Sulforaphane]
relative cell proliferation [1]: approximately 200%
scratch wound closure ([2]; 1 µg/mL, 16 h): 71.5%
scratch wound closure ([2]; 1 µg/mL, 20 h): 74.9%
scratch wound closure ([2]; 1 µg/mL, 24 h): 94.8%
scratch wound closure ([2]; 25 µg/mL, 16 h): significant cell detachment and reduced recovery
scratch wound closure ([2]; 25 µg/mL, 20 h): remaining below the control
relative HDP cell migration (untreated control = 100%) ([3]; 0.1 µg/mL): 141%
relative HDP cell migration (untreated control = 100%) ([3]; 1 µg/mL): 150%
relative HDP cell migration (untreated control = 100%) ([3]; 25 µg/mL): 16.7%
Cmax ([4]; SFN IV 2 mg/kg): 339 ± 50 ng/mL
AUC(0-inf) ([4]; SFN IV 2 mg/kg): 421 ± 67 ng·h/mL
AUC(0-t) ([4]; SFN IV 2 mg/kg): 403 ± 52 ng·h/mL
half-life ([4]; SFN IV 2 mg/kg): 7 ± 3 h
Cmax ([4]; SFN oral 5 mg/kg): 155 ± 17 ng/mL
Tmax ([4]; SFN oral 5 mg/kg): 2 h
bioavailability ([4]; SFN oral 5 mg/kg, vs SFN IV): 87 ± 5%
AUC(0-inf) ([4]; SFN oral 5 mg/kg): 934 ± 41 ng·h/mL
AUC(0-t) ([4]; SFN oral 5 mg/kg): 874 ± 46 ng·h/mL
half-life ([4]; SFN oral 5 mg/kg): 5 h
concentration above which cytotoxic effects (decreased cell viability) were seen [5]: above 10 µg/mL
concentration at which proliferation decreased (dose-dependent cytotoxicity) [6]: ≥ 5000 ng/mL
aqueous solubility [7]: ~ 1.85 mg/mL
residual SFN content ([8]; stored at 4 °C): 95.18 ± 0.20%
residual SFN content ([8]; stored at 26 °C): 78.45 ± 0.28%
residual SFN content ([8]; stored at −20 °C): 96.56 ± 0.15%
fraction degraded [9]: ~90%
biological half-life [10]: approximately 2.2 h
